Read-outs that look alike come from different tables or passages of the source.
Experiments:
[1] = molecular target: T1, pooled human liver microsome (HLM) preparations (Homo sapiens, UniProt Q02928); test: Inhibition of MONACRA demethylation in pooled HLM preparations; type: biochemical; settings: 150 µM MONACRA
T1 sequence (Q02928 5-519): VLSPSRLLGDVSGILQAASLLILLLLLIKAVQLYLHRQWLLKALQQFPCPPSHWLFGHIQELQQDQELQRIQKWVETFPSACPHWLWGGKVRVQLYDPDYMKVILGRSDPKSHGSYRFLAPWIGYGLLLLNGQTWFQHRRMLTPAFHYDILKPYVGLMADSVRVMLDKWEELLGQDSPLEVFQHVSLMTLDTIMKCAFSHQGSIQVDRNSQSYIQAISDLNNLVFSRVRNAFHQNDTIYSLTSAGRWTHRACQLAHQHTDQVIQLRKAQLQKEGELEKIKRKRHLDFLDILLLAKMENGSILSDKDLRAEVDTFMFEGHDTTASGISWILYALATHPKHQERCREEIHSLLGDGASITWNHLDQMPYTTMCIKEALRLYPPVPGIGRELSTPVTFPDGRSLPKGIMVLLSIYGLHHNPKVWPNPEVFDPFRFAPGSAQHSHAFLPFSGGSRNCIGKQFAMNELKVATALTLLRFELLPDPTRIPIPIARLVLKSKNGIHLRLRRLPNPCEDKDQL
Text: (§1) To probe the role of CYP4A11 and CYP1A2 in MONACRA metabolism by HLM, we employed inhibitory analysis with the use of epalrestat as a specific inhibitor of CYP4A11 [22] and fluvoxamine as a CYP1A2 inhibitor [37]. We explored the effect of the inhibitors on the activity of recombinant CYP1A2 and CYP4A11, as well as the activity of six different preparations of HLM (preparation X347 was not available at the time of the study).
(§2) Figure 12: Effect of epalrestat (A) and fluvoxamine (B) on 3-(6-methoxynaphthalen-2-yl)acrylic acid (MONACRA) demethylation by recombinant CYP1A2 (black) and CYP4A11 (red) and three pooled human liver microsome (HLM) preparations: X263 (green), DNJ (blue), and WGP (brown). Solid lines represent the approximation of the datasets by eqn 1 (in the instances of pure inhibition) or a combination of two hyperbolic equations (in the cases of activation or combined inhibition and activation). All experiments were carried out at 150 µM MONACRA concentration. The datasets shown in the graphs represent the averages of the results of four (fluvoxamine) or two (epalrestat) individual experiments.
This study used preparations of pooled HLMs from 50, 150, or 200 donors (mixed gender). The preparations CDN, DNJ, and WGP were INVITROCYP 150-Donor Human Liver Microsomes obtained from BioIVT Corporation (Westbury, NY). Lot EGW is INVITROCYP M-Class 50-Donor HLM procured from the same company. Lots 1,910,096 and 1,210,347 were XTreme 200 Mixed Gender HLM (200 donors) purchased from XenoTech LLC (Kansas City, KS), currently a part of BioIVT. Lot 2,110,263 corresponds to mixed gender HLM from 50 donors from the same company. These lots are referred to herein as X096, X347, and X263, respectively. The supplier of the HLM preparations used in our studies, BioIVT Corporation, has declared to adhere to the regulations of the Department of Health and Human Services for the protection of human subjects (45 CFR §46.116 and §46.117) and Good Clinical Practice, (ICH E6) in obtaining the samples of human tissues used for producing the preparations of human subcellular fractions available from these companies.
(§3) Inhibition of MONACRA metabolism by epalrestat and fluvoxamine was studied using the high-throughput assay described above. The substrate concentration was kept constant at 150 µM. Each column of the well plate comprised eight wells with different concentrations of inhibitor complemented with two wells with no inhibitor added (100% activity samples) and two wells with no inhibitor and no NADPH added (‘blank’ samples). […] The fractional inhibition at each inhibitor concentration was determined from the ratio of the reaction rate in the presence of an inhibitor to the rate observed at no inhibitor added. The resulting dependence of the fractional inhibition on the inhibitor concentration was fitted to a four-parameter logistic equation (Hill equation):
(§4) (1) FI=v0−vi/v0=Amax[I]^N/IC50+[I]^N
In this equation, F I and vi are the fractional inhibition and the reaction velocity observed at inhibitor concentration [I], v0 is the reaction rate at no inhibitor added, and A max is the maximal amplitude of inhibition. IC 50 is the concentration of inhibitor at which the inhibition reaches 50% of its maximal amplitude (A max), and N is the Hill coefficient.

CYP4A11 = molecular target: T2, CYP4A11 (Homo sapiens, UniProt Q02928); test: Inhibition of MONACRA demethylation by recombinant CYP4A11; type: biochemical; set-up: purchased Gentest (Huntsville, AL), now a part of Discovery Life Sciences lot 2402280; host or cells: insect cells, recombinant baculovirus; settings: recombinant CYP4A11 Supersomes; 150 µM MONACRA
T2 sequence (Q02928 5-519): T1 sequence (Q02928 5-519)
Text: as §1, §2
as §3, with “The” for “The fractional inhibition at each inhibitor concentration was determined from the ratio of the reaction rate in the presence of an inhibitor to the rate observed at no inhibitor added. The”
as §4
IC 50 is the concentration of inhibitor at which the inhibition reaches 50% of its maximal amplitude (A max), and N is the Hill coefficient.

[2] = substrate: COc1ccc2cc(C=CC(=O)O)ccc2c1; test: MONACRA demethylation by recombinant CYP4A11 in Supersomes, high-throughput fluorimetric assay; type: biochemical, human; settings: other: CYP4A11 Supersomes, Michaelis–Menten fit, 20 min at 30°C, ± = confidence interval P=0.05
Method: Based on these observations, we developed a high-throughput automated assay applicable for studying SSPs of MONACRA metabolism by microsomal P450 enzymes. In this procedure, the incubation mixtures containing an NADPH-generating system and various substrate concentrations are placed in a multiwell plate and preincubated at 30°C in a thermostated shaker. The reaction is started by adding microsomal suspension to the final concentration of 0.3–1 mg/ml of microsomal protein or 0.02–0.1 µM of recombinant P450 enzymes in Supersomes. Following the incubation for 20 min at 30°C, the reaction is quenched by adding trichloroacetic acid (final concentration […]). After supplementing the wells with Na-glycine buffer (pH 10.4, final concentration 2.1 M), the plates are subjected to scanning the fluorescence spectra with excitation at 375 nm. This assay, which is described in detail in Materials and Methods, allows reliable detection of the concentrations of HONACRA as low as 0.1 µM.
We used the high-throughput activity assay described above to probe MONACRA metabolism by 16 human microsomal P450 enzymes, namely CYP1A2, CYP2A6, CYP2B6, CYP2C8, CYP2C9, CYP2C19, CYP2D6, CYP2E1, CYP2J2, CYP3A4, CYP3A5, CYP4A11, CYP4F2, CYP4F3A, CYP4F3B, and CYP4F12. […]

[3] = all studied HLM samples (six preparations)

## CC(/C=C1\SC(=S)N(CC(=O)O)C1=O)=C\c1ccccc1 [epalrestat]
[1]; HLM sample CDN
  Inhibition (amplitude): 99.7±0.6%
[1]; HLM sample CDN, unit not given (µM)
  IC50: 1.48 ± 0.21 µM
[1]; HLM sample DNJ
  Inhibition (amplitude): 93.0±2.3%
[1]; HLM sample DNJ, unit not given (µM)
  IC50: 2.02 ± 1.7 µM
[1]; HLM sample EGW
  Inhibition (amplitude): 99.8±0.4%
[1]; HLM sample EGW, unit not given (µM)
  IC50: 2.15 ± 0.52 µM
[1]; HLM sample WGP
  Inhibition (amplitude): 97.1±5.7%
[1]; HLM sample WGP, unit not given (µM)
  IC50: 2.14 ± 0.94 µM
[1]; HLM sample X096
  Inhibition (amplitude): 93.9±0.7%
[1]; HLM sample X096, unit not given (µM)
  IC50: 5.36 ± 0.13 µM
[1]; HLM sample X263
  Inhibition (amplitude): 100.0%
[1]; HLM sample X263, unit not given (µM)
  IC50: 5.09 ± 1.04 µM
[1]; [3]
  IC50: 3 ± 1.4 µM
  amplitude of inhibition: 97.2±2.5
CYP4A11
  IC50: 1300 nM
  effect on MONACRA demethylation by CYP4A11: complete inhibition

## COCCCC/C(=N\OCCN)c1ccc(C(F)(F)F)cc1 [fluvoxamine]
[1]; HLM preparation DNJ
  amplitude of inhibition: 69%
[1]; HLM preparation DNJ, read-out: IC 50
  IC50: 14 µM
[1]; HLM preparations CDN, WGP and X096
  effect on MONACRA metabolism in HLM: combination of an inhibitory effect at lower concentrations with an activation that manifests itself as the concentration increases
[1]; HLM preparations EGW and X263
  effect on MONACRA metabolism in HLM: activation similar to that observed in CYP4A11 Supersomes
CYP4A11
  effect on MONACRA demethylation by CYP4A11: pronounced activation

B1: CYP4A11 (Homo sapiens) (protein)
chain: T1 sequence (Q02928 5-519)
notes: purchased Gentest (Huntsville, AL), now a part of Discovery Life Sciences lot 2402280; host or cells: insect cells, recombinant baculovirus
[2]
  Km: 189 ± 37 µM
  kcat: 1.12 ± 0.3 s⁻¹
